Test results published in patent US20110294794A1, “TREATMENT OF PROTEINOPATHIES USING A FARNESYL TRANSFERASE INHIBITOR” (Link Medicine Corporation, priority 2008, published 2011).
“Also recorded” adds a separate entry of the source.

What was measured:
LC3 = assay: Punctate LC3 immunostaining in SH-SY5Y cells; format: cell-based, human; details: 100 nM (FIG. 8b)
Description: Cell culture and immunocytochemistry: SH-SY5Y cells were grown in DMEM medium supplemented with 10% FBS and 1% pen/strep at 37° C. and 5% CO2. Cells were differentiated with 10 μM retinoic acid for 48 hr, then treated with the either rapamycin (100 nM or 1 μM) or with 100 nM of either LNK-754-TS or Tipifarnib for 48-72 hr. Cells were then fixed with 4% paraformaldehyde and stained for LC3 (Novus biological, NB100-2331, dilution 1:800) followed by secondary Alexa-564 anti-Rabbit (A-11011).
Autophagy was measured in a neuroblastoma cell culture system by three distinct approaches: quantitation of autophagy-related mRNA's, immunofluorescence microscopy of autophagosomes, and biochemical detection of the microtubule-associated protein 1 light chain 3 (LC3) a key protein that is required for autophagosome formation. Differentiated human neuroblastoma cells (SH-SY5Y) were treated for 72 hr with LNK-754-TS (0.01-100 nM), Zarnestra® (also referred to herein as tipifarnib) (100 nM) or rapamycin (1 μM).

p70 S6 kinase (S6K) = assay: p70S6K phosphorylation in SH-SY5Y cells; format: cell-based, human; details: FIG. 8f
TAU = assay: TAU441 transgenic mice, TAU immunoreactivity (AT180, HT7) in the amygdala; format: in vivo, mouse; details: 0.09 mg/kg once every 24 hours, three months
Description: Animals and treatments: Male and female human WT alpha-synuclein over-expressing transgenic mice^32 at 6 months of age were given vehicle (10% beta-cyclodextrin) or LNK-754-TS (0.09, 0.9 and 9 mg/kg) per oral gavage twice daily for 3 months or animals at 7 months of age were given vehicle (2.5% beta-cyclodextrin) or LNK-754-TS (2 mg/kg) once every three days for 3 months. Male and female TAU transgenic mice expressing TAU441 bearing the missense mutations V337M^50 and R406W under the control of the murine Thy-1 promoter with a CB6xC57BL/6 background were 5 months old at the time when the oral treatment for three months with LNK-754-TS (0.9 and 0.09 mg/kg) as well as vehicle (2.5% beta-cyclodextrin) was started. Female human APP/PS1 (APP (London V7171)/PS1(A246E)) over-expressing transgenic mice were treated with LNK-754-TS (0.9 mg/kg) or vehicle (2.5% beta-cyclodextrin) for 2 months or 12 days.
Immunohistochemistry and quantification of stained cells: For evaluation of α-synuclein immunoreactivity (IR), 5 sagittal cryo-cut sections (10 μm slice thickness) from five different layers were used for counting of IR cells in the cortex and hippocampus. […] IR positive cells were quantified using specialized image analysis software (Image Pro Plus, version 4.5.1.29). […] Images were evaluated with ImageProPlus (version 6.2) image analysis software. For APP/PS1 transgenic animals sagittal hemisections (40 μm) were collected and processed for Aβ immunohistochemistry using an 6E10 antibody, Thioflavin-S staining Primary antibodies were detected by the ABC method. […]
This study was designed to evaluate the effects of a treatment with LNK-754-TS dosed at 0.09 mg per kg on behavior, TAU and TAU-pT231 levels, and brain morphology of TAU441 Tg mice. Histological evaluations were performed to quantitatively evaluate TAU pathology. TAU depositions were determined using the monoclonal TAU-antibodies AT180 and HT7. […]

Aβ = assay: h-APPsl transgenic mouse, Aβ immunoreactivity and extracted Aβ; format: in vivo; details: 0.9 mg/kg once every 24 hr, three months
[1] = tested on: 3T3 H-ras (61L) xenograft; details: BID for 10 days; cited from earlier work

With `C#Cc1cccc(-c2cc(=O)n(C)c3ccc([C@](O)(c4ccc(Cl)cc4)c4cncn4C)cc23)c1` [LNK-754-TS, (R)-6-[(4-chlorophenyl)-hydroxyl-(1-methyl-1-H-imidazol-5-yl)-methyl]-4-(3-ethynylphenyl)-1-methyl-2-(1H)-quinonlinone (2S,3S)-dihydroxybutanedioate] the “punctate LC3 immunostaining (number of LC3-positive puncta)” value (LC3) was “distinct increase; also recorded: increased”, the “decrease / inhibition of p70S6K phosphorylation” value (p70 S6 kinase (S6K)) was “did not inhibit” and the “number of AT180 immunoreactive (affected) cells in the amygdala” value (TAU) was “comparable to those of baseline animals”. The “phosphorylated Tau (AT180) immunoreactivity in the amygdala vs. vehicle” value (TAU) was “significantly decreased; also recorded: significant reduction; also recorded: significantly reduced”, the “total Tau (HT7) immunoreactivity in the amygdala vs. vehicle” value (TAU) was “not significantly reduced; also recorded: did not change” and the “cortical Aβ immunoreactivity and Aβ extracted in the insoluble fractions” value (Aβ) was “did not significantly reduce”. The “dose required for suppression of tumor growth” value [1] was “at least 25 mg per kg”.
